Results published in patent US20230065562A1, “DUAL CONTROLS FOR THERAPEUTIC CELL ACTIVATION OR ELIMINATION” (Bellicum Pharmaceuticals, Inc., priority 2015, published 2023).
pIC50: −log10 of the molar value. Read-outs that look alike come from different tables or passages of the source.

Experiments:
[1] = system: iRC9 T cells (pBP1310, GFP-Fluc); assay: In vivo apoptotic activation in NSG mice, iRC9 T cells (IVIS imaging, spleen FACS); parameters: species or system mouse; settings: 10 mg/kg rapamycin i.p., at 24 hours, FIG. 109D
Method: (§1) PBMCs from donor 676 were activated and co-transduced with one of the off-switches and GFP-Fluc retroviruses. Eleven days after transduction, cells were analyzed for transduction efficiency with GFP and anti-CD3/anti-CD19 antibodies (FIG. 109A). […] The CD19^+ MFI for the different T cell populations were: iC9=15.07, iRC9=14.38, and iRmC9=13.39. The cells were collected, counted, washed, and resuspended at 1×10^6 cells in 100 μl PBS for each tail vein mouse injection (Table 10) (time=−18 hr). […] IVIS imaging was performed at −14, 0, 5, 24 and 29 hours. Mice were sacrificed and spleens were collected for FACS analysis with hCD3, hCD19 and mCD45 antibodies. […] The higher percentage of remaining iRmC9 T cells observed may be due to an artifact of normalizing the no drug group.
PBMCs from donor 676 were activated and co-transduced with retroviruses encoding the pBP0220, 1310, 1327 vectors and the GFP-Fluc plasmid. (FIG. 109A) Eleven days post transduction, the cells were analyzed for CD19 and GFP transduction efficiency prior to injection into mice. (FIGS. 109B & C) NSG mice were injected i.v. with 107 T cells co-transduced with GFP-Fluc per mouse and suicide drugs were injected i.p. the next day. Bioluminescence of cells was assessed at −14, 0, 5, 24, and 29 hours post-drug administration. […]

[2] = system: 293 cells
Method: FIG. 12B: Cultures of HEK-293 cells were transfected (via Genejuice, Novagen) with the constitutive SRα-SEAP reporter plasmid (pBP0046, 1 μg), a fusion of human FKBP12 with human Caspase-9 (pBP0044, 2 μg) and FRB-encoding expression constructs, containing four copies of FRBL (pBP0725, 2 μg) or control vectors encoding zero or one copy of FRBL.
To determine if iCaspase-9 could be aggregated by tandem multimers of FRBL, one to four tandem copies of FRBL were subcloned into an expression vector, pSH1, driving transgene expression from an SRα promoter. […] 293 cells were transfected with the SRα-SEAP reporter plasmid along with FKBP12-ΔCaspase-9 (iCaspase-9/iC9), plus 1 of several FRB-based, non-myristoylated scaffold proteins containing 0, 1, or 4 tandem copies of FRBL.

[3] = system: 293 cells; remark: listed apart in the source
Excerpt: To determine if the polarity of heterodimerization and Caspase-9 assembly could be reversed, one to four 1 to 4 tandem copies of FKBP12 were subcloned into expression vector, pSH1, as above. […] As above, 293 cells were transfected with the SRα-SEAP reporter plasmid along with FRBL-ΔCaspase-9, plus a non-myristoylated scaffold protein containing 1 or 4 tandem copies of FKBP12.

[4] = system: iRmC9 T cells (pBP1327, GFP-Fluc); assay: In vivo apoptotic activation in NSG mice, iRmC9 T cells (IVIS imaging, spleen FACS); parameters: species or system mouse; settings: 5 mg/kg rimiducid or 10 mg/kg rapamycin i.p.; spleen FACS, FIG. 109D
Method: as §1
PBMCs from donor 676 were activated and co-transduced with retroviruses encoding the pBP0220, 1310, 1327 vectors and the GFP-Fluc plasmid. (FIG. 109A) Eleven days post transduction, the cells were analyzed for CD19 and GFP transduction efficiency prior to injection into mice. (FIGS. 109B & C) NSG mice were injected i.v. with 107 T cells co-transduced with GFP-Fluc per mouse and suicide drugs were injected i.p. the next day. Bioluminescence of cells was assessed at −14, 0, 5, 24, and 29 hours post-drug administration. (FIG. 109D) At 29-h post-drug treatment, mice were euthanized and spleens were collected for flow cytometry analysis with antibodies to hCD3, […], and mCD45

[5] = system: EGFPluciferase-labeled T cells; assay: In vivo function of rapamycin/rimiducid-inducible Caspase-9 switches in NSG mice (luciferase-labeled T cells)
Method: T cells were activated and co-transduced with the “iMC+CARζ”, SFG-iMC-2A-CAR.ζ vector, and a iC9-X vector, SFG-FRB.FKBP12.C9-2A-ΔCD19 to create a CombiCAR.
8-week-old female, immune-deficient mice (NOD.CgPrkdc^scidIl2^tm1Wjl/SzJ; NSG) were injected IV with 1×10^6 T cells in 100 p1 PBS. Mice were subjected to IVIS imaging ˜4 hrs after T cell injection (˜14 hrs post-drug administration). […] Mice were imaged again at 5-6 hrs, and 24 hrs after drug injection. Mice were sacrificed and spleens were removed for FACS analysis.
Mice were imaged for firefly luciferase-derived bioluminescence at the indicated time points relative to administration of drug or vehicle.

[6] = system: dual-switch TCR-modified T cells; settings: 10 nM Rap; 14±4% without drug
[7] = system: T cells expressing ΔC9 alone (pBP1501); assay: T cell killing assay with caspase 3/7 green reagent monitored by IncuCyte, negative control ΔC9; type: cell-based, human; settings: increasing doses, FIG. 108B
Excerpt: To determine the functionality of these switches in activated T cells, retroviral supernatants were produced and transduced into PBMCs activated from 3 separate donors.

[8] = system: 293 cells; assay: 293 cells transfected with iC9 or iRC9: caspase 3/7 (IncuCyte) and SRα SEAP assays; type: cell-based
Method: 293 cells were seeded at 300,000 cells/well in a 6-well plate and allowed to grow for 2 days. After 48 h, cells were transfected with 1 μg of experimental plasmids. Cells were harvested 48 h after transfection and diluted 2.5× their original volume.
For FIG. 52B left graph, the lines of the graph, as indicated at the 10^3 point of the x-axis are, from top to bottom, negative control, FKBP.FRB.C9, FRB.FKBP.C9, iC9. For FIG. 52B right graph, the lines of the graph at the 10^3 point of the x-axis are, from top to bottom negative control, iC9, FKBP.FRB.C9, and FRB.FKBP.C9.
On day 0, 5×10^5 293 cells were seeded onto 6-well plates in 2 ml DMEM medium (10% FBS+1% pen/strep). […] On day 2, cells were collected, and seeded onto 96-well plates containing 2× concentrated half-log drug dilutions and also analyzed by FACS for transfection efficiency. On day 3, the drug-treated cells were heat inactivated at 68° C. for 1 hour and supernatants were added to black 96-well plate containing 1 mM MUP substrate (2× concentration) diluted in 2M diethanolamine. The plates were incubated at 37° C. for 30 min and absorbance at 405 nm was measured.

[9] = system: 293 cells; assay: SEAP assay: FRB-tagged CAR plus iCaspase-9 in 293 cells; type: cell-based; settings: FRB-tagged CAR plus FKBP-tagged Caspase-9
Excerpt: FIGS. 6A and 6B provide the results of an assay of two-tiered activation of apoptosis.
As a proof of principal, two tandem FRB, domains were fused to either a 1st generation Her2-CAR or to a 1st generation CD19-CAR co-expressing inducible Caspase-9. 293 cells were transiently transfected with a constitutive reporter plasmid, SRα-SEAP, along with normalized levels of expression plasmids encoding Her2-CAR-FRB2, iCaspase-9, Her2-CAR-FRBl2+iCasp9, iC9-CAR(19).FRBl2 (coexpressing both CD19-CAR-FRBl2 and iCaspase9), or control vector. […] After overnight incubation with drugs, SEAP activity was determined. […] This dose-dependent decrease required the presence of both the FRB-tagged CAR and the FKBP-tagged Caspase-9. […] Moreover, on- or off-target-mediated CAR clustering should increase the sensitivity of killing primarily at the site of scFv engagement.

[10] = system: HPAC PSCA+ tumor cells; assay: T cell anti-tumor assay with HPAC-RFP cells (IncuCyte, ELISA); type: cell-based, human; settings: 10 nM on day 7 of co-culture
Method: PBMCs from donor 920 were activated and co-transduced with GFP-Ffluc and iMC+CARζ-T (189), i9+CARζ+MC (873), or FwtFRBC9/MC.FvFv (1308)-encoding vectors. […] (A & B) Two days post-seeding, culture supernatants were analyzed for IL-2, IL-6, and IFN-γ production by ELISA. […] Numbers of HPAC-RFP and T cell-GFP at the E:T 1:2 ratio was analyzed using the basic analyzer software for the IncuCyte at day 7 (Ci) and day 8 with 0 nM suicide drug (Cii) and 10 nM suicide drug (Ciii). Similar analysis was also performed at the 1:5 E:T ratio (D). (Note: the y-axis in Ci and Di are at log-scale).
The HPAC PSCA^+ tumor cells were stably labeled with nuclear-localized RFP protein using the NucLight™ Red Lentivirus Reagent (Essen Bioscience, 4625). To set up the coculture, 4000 HPAC-RFP cells were seeded per well of 96-well plates in 100 μl of CTL medium without IL-2 for at least 4 hours to allow tumor cells to adhere. After transduction with the appropriate retrovirus and allowed to rest for at least 7 days in culture, T were seeded according to various E:T ratios to the HPAC-RFP-containing 96-well plates. […] Each plate was set up in duplicates, one plate to monitor with the IncuCyte cell imaging system and one plate for supernatant collection for ELISA assay on day 2. The plates were centrifuged for 5 min at 400×g and placed inside the IncuCyte (Essen Bioscience, Dual Color Model 4459) to monitor red fluorescence (and green fluorescence if T cells were labeled with GFP-Ffluc) every 2-3 hours for a total of 7 days at 10× objective. Image analysis was performed using the “HPAC-RFP_TcellsGFP_10×_MLD” processing definition. On day 7, HPAC-RFP cells were analyzed using the “Red Object Count (1/well)” metric. […] On day 8, Tcell-GFP cells were analyzed using the “Total Green Object Integrated Intensity” metric. Each condition was performed at least in duplicates and each well was imaged at 4 different locations.

[11] = system: 293T cells; assay: SeAP reporter assay: FRBL-Caspase9 plus FKBPv12-Caspase9 heterodimerization; type: cell-based; settings: FRBL-Caspase 9 plus FKBPV12-Caspase 9
Method: HEK 293T cells (5×10^5) were seeded on a 100-mm tissue culture dish in 10 mL DMEM4500, supplemented with glutamine, penicillin/streptomycin and 10% fetal calf serum. After 16-30 hours incubation, cells were transfected using Novagen's GeneJuice® protocol. Briefly, for each transfection, 0.5 mL OptiMEM was pipetted into a 1.5-mL microcentrifuge tube and 15 μL GeneJuice reagent added followed by 5 sec. vortexing. Samples were rested 5 minutes to settle the GeneJuice suspension. DNA (5 μg total) was added to each tube and mixed by pipetting up and down four times. Samples were allowed to rest for 5 minutes for GeneJuice-DNA complex formation and the suspension added dropwise to one dish of 293T cells. […]
24 hours after drug stimulation, 96-well plates were wrapped to prevent evaporation and incubated at 65° C. for 2 hours to inactivate endogenous and serum phosphatases while the heat-stable SeAP reporter remains (1, 4, 12). […] Phosphatase activity was measured by fluorescence with excitation at 355 nm and emission at 460 nm. […]
FIG. 37—Drug induced programmed cell death by homodimerization or heterodimerization of tagged caspase 9. […] Reporter activity is expressed as a percentage of the average of 8 control wells containing no drug. […]
FIG. 38—Rapalog-induced cell death switch. […] Reporter activity is expressed as a percentage of the average of 8 wells containing no drug. […]

[12] = system: 293 cells; assay: SEAP assay: iMC (tandem FKBP) scaffold plus FRBL2-Caspase-9; type: cell-based; settings: tandem FKBPs (iMC) present
Method: FIGS. 16A and 16B are line graphs showing that tandem FKBP scaffold mediates FRBL2. Caspase activation in the presence of rapalogs. FIG. 16A. HEK-293 cells were transfected with 1 μg each of SRα-SEAP reporter plasmid, Δmyr.iMC.2A-anti-CD19.CAR.CD3ζ (pBP0608), and FRBL2. Caspase-9 (pBP0467). […] After ON incubation, cell supernatants were assayed for SEAP activity, as previously described. FIG. 16B. Similar to the experiment described in (FIG. 16A), except that cells were transfected with a membrane-localized (myristoylated) iMC.2A-CD19.CAR.CD3ζ (pBP0609), instead of non-myristoylated Δmyr.iMC.2A-CD19.CAR.CD3ζ (pBP0608).
In a second test for rapalog-mediated scaffold-based activation of Caspase-9, 293 cells were transiently transfected with SRα-SEAP reporter plasmid, plus myristoylated or non-myristoylated inducible iMC co-expressed with 1st generation anti-CD19 CAR, plus FRBL2-fused Caspase-9 (plasmid pBP0467) (FIG. 16).

SMILES: CO[C@H]1C[C@@H]2CC[C@@H](C)[C@@](O)(O2)C(=O)C(=O)N2CCCC[C@H]2C(=O)O[C@H]([C@H](C)C[C@@H]2CC[C@@H](O)[C@H](OC)C2)CC(=O)[C@H](C)/C=C(\C)[C@@H](O)[C@@H](OC)C(=O)[C@H](C)C[C@H](C)/C=C/C=C/C=C/1C [rapamycin]
- iRC9 T cells remained in splenocytes compared to no drug- and rimiducid-treated groups [1]: ~25%
- pIC50 [2]: ~8.52
- pIC50 [3]: ~8.52
- iRmC9 T cells remained in splenocytes (normalized to no drug group) [4]: ~40%
- cell death of T cells within 24 hours in vivo [5]: 90%
- Annexin-V+ cells [6]: 72±5%
- activity of negative control ΔC9 alone (pBP1501) in T cells [7]: not active
- rapamycin concentration at which iRC9 is highly active [8]: 100 µM
- maximal decrease of SEAP activity [9]: ~50%
- elimination of FwtFRBC9/MC.FvFv T cells within 24 hours [10]: more than 60%

SMILES: COC1CC(CC(C)C2CC(=O)C(C)C=C(C)C(O)C(OC)C(=O)C(C)CC(C)C=CC=CC=C(C)C(OC(C)C)CC3CCC(C)C(O)(O3)C(=O)C(=O)N3CCCCC3C(=O)O2)CCC1O (stereo not drawn) [C7-isopropoxy-rapamycin, C7-isopropoxyrapamycin]
- cell death (loss of SeAP reporter) [11]: dose-dependent high efficacy cell death switch
- activation of FRBL2-Caspase-9 [12]: activated
